The text below walks through data of patent US20260274892A1, “MACROCYCLIC BROAD SPECTRUM ANTIBIOTICS” (RQx Pharmaceuticals, Inc., priority 2017, published 2026).

By MIC is commonly meant the smallest concentration in the dilution series that meets the test's criterion for growth inhibition.

Test [1] relates to Escherichia coli ATCC 25922. Nature of the test: Minimum inhibitory concentration (MIC), CLSI broth micro-dilution, E. coli. The format is cell-based. Conditions: Escherichia coli, ATCC25922, 22 h, Table 6, cation adjusted Mueller Hinton Broth + 0.002% Tween-80, 35° C. The essentials:
(§1)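 Colonies grown 20 h at 35° C on Trypticase Soy agar (MRSA) or Luria agar (E. coli) were suspended in cation-adjusted Mueller Hinton broth with 0.002% Tween-80. Suspensions were added at OD600 0.0005 to 10-point twofold compound dilutions, then incubated 22 h at 35° C.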
On the technique in general: Broth dilution looks for growth in wells or tubes with falling amounts of substance.

For test [2], the system named is Methicillin Resistant Staphylococcus aureus strain USA 200. Nature of the test: Minimum inhibitory concentration (MIC), CLSI broth micro-dilution, S. aureus. It is filed as cell-based. Particulars: Staphylococcus aureus, MRSA / USA200; Table 6; MRSA USA 200; cation adjusted Mueller Hinton Broth + 0.002% Tween-80; 35° C., 22 hours. A digest of the protocol:
as §1

Turning to `CCCCCCc1ncc(-c2ccc(C(=O)N[C@@H](CCN)C(=O)N(C)[C@@H]3C(=O)N[C@@H](C)C(=O)N[C@H](C(=O)NCC#N)Cc4ccc(OCCN)c(c4)-c4cc3ccc4OCCN)c(C(F)F)c2)cn1` (racemic) [Compound 388, rac-(8S,11S,14S)-3,18-bis(2-aminoethoxy)-N-(cyanomethyl)-11-methyl-14-[methyl-[rac-(2S)-4-amino-2-[[2-(difluoromethyl)-4-(2-hexylpyrimidin-5-yl)benzoyl]amino]butanoyl]amino]-10,13-dioxo-9,12-diazatricyclo[13.3.1.12,6]icosa-1(18),2(20),3,5,15(19),16-hexaene-8-carboxamide], the MIC in test [1] is 1 µM; in test [2] it was 0.031 µM.
On to `C[C@@H]1NC(=O)[C@@H](N(C)C(=O)[C@H](CCN)NC(=O)C2CCN(c3ccc(C(C)(C)C)cc3)CC2)c2ccc(OCCN)c(c2)-c2cc(ccc2OCCN)C[C@@H](C(=O)NCC#N)NC1=O` (racemic) [Compound 389, rac-(8S,11S,14S)-3,18-bis(2-aminoethoxy)-N-(cyanomethyl)-11-methyl-14-[methyl-[rac-(2S)-4-amino-2-[[1-(4-tert-butylphenyl)piperidine-4-carbonyl]amino]butanoyl]amino]-10,13-dioxo-9,12-diazatricyclo[13.3.1.12,6]icosa-1(18),2(20),3,5,15(19),16-hexaene-8-carboxamide], for which the MIC is 4 µM in test [1] and 0.13 µM in test [2].
Take `Cc1nc2cc(-c3ccc(C(C)(C)C)cc3)ccn2c1C(=O)N[C@@H](CCN)C(=O)N(C)[C@@H]1C(=O)N[C@@H](C)C(=O)N[C@H](C(=O)NCC#N)Cc2ccc(OCCN)c(c2)-c2cc1ccc2OCCN` (racemic) [Compound 393, rac-(8S,11S,14S)-3,18-bis(2-aminoethoxy)-N-(cyanomethyl)-11-methyl-14-[methyl-[rac-(2S)-4-amino-2-[[7-(4-tert-butylphenyl)-2-methyl-imidazo[1,2-a]pyridine-3-carbonyl]amino]butanoyl]amino]-10,13-dioxo-9,12-diazatricyclo[13.3.1.12,6]icosa-1(18),2(20),3,5,15(19),16-hexaene-8-carboxamide]: the values for the MIC in test [1] and in test [2] were 8.2 µM and 0.021 µM, respectively.
With `CCCCCCc1ccc2cc(C(=O)N[C@@H](CCN)C(=O)N(C)[C@@H]3C(=O)N[C@@H](C)C(=O)N[C@H](C(=O)NCC#N)Cc4ccc(OCCN)c(c4)-c4cc3ccc4OCCN)c(C)nc2c1` (racemic) [Compound 394, rac-(8S,11S,14S)-3,18-bis(2-aminoethoxy)-N-(cyanomethyl)-11-methyl-14-[methyl-[rac-(2S)-4-amino-2-[(7-hexyl-2-methyl-quinoline-3-carbonyl)amino]butanoyl]amino]-10,13-dioxo-9,12-diazatricyclo[13.3.1.12,6]icosa-1(18),2(20),3,5,15(19),16-hexaene-8-carboxamide], the MIC amounted to 0.2 µM in test [1] and 0.0083 µM in test [2].
As to `CCCCCCc1ccc2nc(C)c(C(=O)N[C@@H](CCN)C(=O)N(C)[C@@H]3C(=O)N[C@@H](C)C(=O)N[C@H](C(=O)NCC#N)Cc4ccc(OCCN)c(c4)-c4cc3ccc4OCCN)cc2c1` (racemic) [Compound 395, rac-(8S,11S,14S)-3,18-bis(2-aminoethoxy)-N-(cyanomethyl)-11-methyl-14-[methyl-[rac-(2S)-4-amino-2-[(6-hexyl-2-methyl-quinoline-3-carbonyl)amino]butanoyl]amino]-10,13-dioxo-9,12-diazatricyclo[13.3.1.12,6]icosa-1(18),2(20),3,5,15(19),16-hexaene-8-carboxamide], the MIC in test [1] was found to be 0.27 µM; in test [2], 0.013 µM.
With `CCCCCCOc1ccc2nc(C)c(C(=O)N[C@@H](CCN)C(=O)N(C)[C@@H]3C(=O)N[C@@H](C)C(=O)N[C@H](C(=O)NCC#N)Cc4ccc(OCCN)c(c4)-c4cc3ccc4OCCN)cc2c1` (racemic) [Compound 396, rac-(8S,11S,14S)-3,18-bis(2-aminoethoxy)-N-(cyanomethyl)-11-methyl-14-[methyl-[rac-(2S)-4-amino-2-[(6-hexoxy-2-methyl-quinoline-3-carbonyl)amino]butanoyl]amino]-10,13-dioxo-9,12-diazatricyclo[13.3.1.12,6]icosa-1(18),2(20),3,5,15(19),16-hexaene-8-carboxamide], the MIC amounted to 0.5 µM in test [1] and 0.016 µM in test [2].
For the molecule `Cc1nc2ccc(Oc3ccc(C(C)(C)C)cc3)cc2cc1C(=O)N[C@@H](CCN)C(=O)N(C)[C@@H]1C(=O)N[C@@H](C)C(=O)N[C@H](C(=O)NCC#N)Cc2ccc(OCCN)c(c2)-c2cc1ccc2OCCN` (racemic) [Compound 397, rac-(8S,11S,14S)-3,18-bis(2-aminoethoxy)-N-(cyanomethyl)-11-methyl-14-[methyl-[rac-(2S)-4-amino-2-[[6-(4-tert-butylphenoxy)-2-methyl-quinoline-3-carbonyl]amino]butanoyl]amino]-10,13-dioxo-9,12-diazatricyclo[13.3.1.12,6]icosa-1(18),2(20),3,5,15(19),16-hexaene-8-carboxamide], the MIC in test [1] worked out at 0.38 µM; in test [2], 0.023 µM.
On to `CCCCCCc1cnc2cc(C(=O)N[C@@H](CCN)C(=O)N(C)[C@@H]3C(=O)N[C@@H](C)C(=O)N[C@H](C(=O)NCC#N)Cc4ccc(OCCN)c(c4)-c4cc3ccc4OCCN)c(C)nc2c1` (racemic) [Compound 398, rac-(8S,11S,14S)-3,18-bis(2-aminoethoxy)-N-(cyanomethyl)-11-methyl-14-[methyl-[rac-(2S)-4-amino-2-[(7-hexyl-2-methyl-1,5-naphthyridine-3-carbonyl)amino]butanoyl]amino]-10,13-dioxo-9,12-diazatricyclo[13.3.1.12,6]icosa-1(18),2(20),3,5,15(19),16-hexaene-8-carboxamide], for which the minimum inhibitory concentration (MIC) worked out at 0.27 µM in test [1] and 0.025 µM in test [2].
For the molecule `CCCCCCc1ccc2nc(C)c(C(=O)N[C@@H](CCN)C(=O)N(C)[C@@H]3C(=O)N[C@@H](C)C(=O)N[C@H](C(=O)NCC#N)Cc4ccc(OCCN)c(c4)-c4cc3ccc4OCCN)c(C)c2c1` (racemic) [Compound 399, rac-(8S,11S,14S)-3,18-bis(2-aminoethoxy)-N-(cyanomethyl)-11-methyl-14-[methyl-[rac-(2S)-4-amino-2-[(6-hexyl-2,4-dimethyl-quinoline-3-carbonyl)amino]butanoyl]amino]-10,13-dioxo-9,12-diazatricyclo[13.3.1.12,6]icosa-1(18),2(20),3,5,15(19),16-hexaene-8-carboxamide], the MIC in test [1] was 0.5 µM; in test [2], 0.0078 µM.
The like results for `CCCCCCc1ccc2cc(C)c(C(=O)N[C@@H](CCN)C(=O)N(C)[C@@H]3C(=O)N[C@@H](C)C(=O)N[C@H](C(=O)NCC#N)Cc4ccc(OCCN)c(c4)-c4cc3ccc4OCCN)cc2c1` (racemic) [Compound 400, rac-(8S,11S,14S)-3,18-bis(2-aminoethoxy)-N-(cyanomethyl)-11-methyl-14-[methyl-[rac-(2S)-4-amino-2-[(7-hexyl-3-methyl-naphthalene-2-carbonyl)amino]butanoyl]amino]-10,13-dioxo-9,12-diazatricyclo[13.3.1.12,6]icosa-1(18),2(20),3,5,15(19),16-hexaene-8-carboxamide] were, in that order, 0.25 µM and 0.047 µM.
As to `Cc1nc(-c2ccc(C(C)(C)C)cc2)c(Br)cc1C(=O)N[C@@H](CCN)C(=O)N(C)[C@@H]1C(=O)N[C@@H](C)C(=O)N[C@H](C(=O)NCC#N)Cc2ccc(OCCN)c(c2)-c2cc1ccc2OCCN` (racemic) [Compound 401, rac-(8S,11S,14S)-3,18-bis(2-aminoethoxy)-N-(cyanomethyl)-11-methyl-14-[methyl-[rac-(2S)-4-amino-2-[[5-bromo-6-(4-tert-butylphenyl)-2-methyl-pyridine-3-carbonyl]amino]butanoyl]amino]-10,13-dioxo-9,12-diazatricyclo[13.3.1.12,6]icosa-1(18),2(20),3,5,15(19),16-hexaene-8-carboxamide], the MIC in test [1] was found to be 0.25 µM; in test [2], 0.016 µM.
`Cc1cc(C(=O)N[C@@H](CCN)C(=O)N(C)[C@@H]2C(=O)N[C@@H](C)C(=O)N[C@H](C(=O)NCC#N)Cc3ccc(OCCN)c(c3)-c3cc2ccc3OCCN)c(C)nc1-c1ccc(C(C)(C)C)cc1` (racemic) [Compound 402, rac-(8S,11S,14S)-3,18-bis(2-aminoethoxy)-N-(cyanomethyl)-11-methyl-14-[methyl-[rac-(2S)-4-amino-2-[[6-(4-tert-butylphenyl)-2,5-dimethyl-pyridine-3-carbonyl]amino]butanoyl]amino]-10,13-dioxo-9,12-diazatricyclo[13.3.1.12,6]icosa-1(18),2(20),3,5,15(19),16-hexaene-8-carboxamide]: the results for the MIC in test [1] and in test [2] were 0.38 µM and 0.031 µM, respectively.
Take `COc1cc(C(=O)N[C@@H](CCN)C(=O)N(C)[C@@H]2C(=O)N[C@@H](C)C(=O)N[C@H](C(=O)NCC#N)Cc3ccc(OCCN)c(c3)-c3cc2ccc3OCCN)c(C)nc1-c1ccc(C(C)(C)C)cc1` (racemic) [Compound 403, rac-(8S,11S,14S)-3,18-bis(2-aminoethoxy)-N-(cyanomethyl)-11-methyl-14-[methyl-[rac-(2S)-4-amino-2-[[6-(4-tert-butylphenyl)-5-methoxy-2-methyl-pyridine-3-carbonyl]amino]butanoyl]amino]-10,13-dioxo-9,12-diazatricyclo[13.3.1.12,6]icosa-1(18),2(20),3,5,15(19),16-hexaene-8-carboxamide]: the MIC in test [1] was 0.5 µM; in test [2], 0.016 µM.
